Data reported in patent US20060115816A1, “Splice variant cannabinoid receptor (cb1b)” (priority 2002, published 2006).
Read-outs that look alike come from different tables or passages of the source.

Assays:
hCB2 = target: T1, hCB2 (Homo sapiens, UniProt P34972); assay: GTPγ[35S] binding assay, agonist properties on hCB2; assay type: biochemical
T1 construct: expressed in transfected cells

hCB1b [1] = target: T2, hCB1b (Homo sapiens, UniProt P21554); assay: FLIPR intracellular calcium mobilization assay (Fluo-3), HEK-293S cells expressing human CB1b receptor and Gα16; assay type: cell-based
T2 construct: expressed in transfected cells
T2 sequence (P21554 1-439 isoform P21554-3): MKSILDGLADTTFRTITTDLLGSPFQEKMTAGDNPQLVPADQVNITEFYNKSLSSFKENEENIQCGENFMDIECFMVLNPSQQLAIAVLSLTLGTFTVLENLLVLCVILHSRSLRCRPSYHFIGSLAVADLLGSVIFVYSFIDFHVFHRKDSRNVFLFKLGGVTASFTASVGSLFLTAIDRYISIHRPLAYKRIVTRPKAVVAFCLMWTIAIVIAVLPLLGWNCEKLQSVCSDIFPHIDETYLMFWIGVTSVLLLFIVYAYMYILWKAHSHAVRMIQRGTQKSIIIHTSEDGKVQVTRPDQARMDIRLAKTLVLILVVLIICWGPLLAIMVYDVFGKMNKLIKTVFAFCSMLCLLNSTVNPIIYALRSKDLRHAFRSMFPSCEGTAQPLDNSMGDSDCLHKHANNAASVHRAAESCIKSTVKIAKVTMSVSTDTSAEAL
Experimental: In order to assess the functionality of the human CB1b receptor variant, a functional assay was performed with FLIPR (Fluorescent Imaging Plate Reader, Molecular Devices) using the fluorescent calcium indicator Fluo-3 (Molecular Probes) on a 96 well platform. […] On the day of the experiment, the cells were initially washed once with Hank's buffer (pH7.4) containing 20 mM Hepes and 0.1% BSA (HBSS buffer) and subsequently loaded with fluorescent solution (HBSS buffer, 4 μM Fluor-3 and 0.04% pluronic acid). The cells were incubated at 37° C. for 1 hour in a humidified chamber. Following the incubation step, cells were washed five times with HBSS buffer. […] A range of other natural and synthetic cannabinoid ligands were also tested.

hCB1b [2] = target: T2, hCB1b; assay: biochemical; assay type: biochemical
hCB1 = target: T3, hCB1 (Homo sapiens, UniProt P21554); assay: biochemical; assay type: biochemical
T3 construct: expressed in transfected cells
T3 sequence (P21554 whole entry): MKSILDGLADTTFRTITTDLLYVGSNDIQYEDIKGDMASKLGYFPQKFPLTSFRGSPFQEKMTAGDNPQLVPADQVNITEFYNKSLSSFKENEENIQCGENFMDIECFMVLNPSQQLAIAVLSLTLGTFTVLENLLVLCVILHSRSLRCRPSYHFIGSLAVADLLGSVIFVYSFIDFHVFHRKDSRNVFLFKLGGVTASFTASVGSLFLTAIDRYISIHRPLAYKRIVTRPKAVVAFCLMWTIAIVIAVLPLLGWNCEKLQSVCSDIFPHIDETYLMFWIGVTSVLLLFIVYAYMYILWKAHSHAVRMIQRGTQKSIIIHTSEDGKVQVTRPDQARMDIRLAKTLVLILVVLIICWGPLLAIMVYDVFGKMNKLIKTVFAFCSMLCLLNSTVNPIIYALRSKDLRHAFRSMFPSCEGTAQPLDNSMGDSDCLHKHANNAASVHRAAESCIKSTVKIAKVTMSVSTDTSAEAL

[3] = target: T4, un-spliced human CB 1 receptor (Homo sapiens, UniProt P21554); assay: FLIPR intracellular calcium mobilization assay (Fluo-3), HEK-293S cells expressing un-spliced hCB1 receptor and Gα16; assay type: cell-based
T4 construct: expressed in transfected cells
T4 sequence (P21554 whole entry, canonical isoform): as the sequence (P21554 whole entry) above

hCB1a = target: T5, hCB1a (Homo sapiens, UniProt P21554); assay: biochemical; assay type: biochemical
T5 construct: expressed in transfected cells
T5 sequence (P21554 1-411 isoform P21554-2): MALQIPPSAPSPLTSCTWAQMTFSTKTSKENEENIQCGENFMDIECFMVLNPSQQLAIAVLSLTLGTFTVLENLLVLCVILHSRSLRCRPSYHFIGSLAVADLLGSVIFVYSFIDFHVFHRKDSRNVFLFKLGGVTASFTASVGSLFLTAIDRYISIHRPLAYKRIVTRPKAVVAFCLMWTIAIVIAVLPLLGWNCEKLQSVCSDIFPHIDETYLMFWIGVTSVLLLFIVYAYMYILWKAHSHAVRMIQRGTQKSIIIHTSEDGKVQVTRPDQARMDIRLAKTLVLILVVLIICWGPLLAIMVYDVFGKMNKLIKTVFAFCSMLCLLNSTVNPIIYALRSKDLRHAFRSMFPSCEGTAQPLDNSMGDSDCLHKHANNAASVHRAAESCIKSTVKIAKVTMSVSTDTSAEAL

[4] = agonist, GTPγ[35S] binding assay, read-out: EC50 hCB1b
[5] = agonist, GTPγ[35S] binding assay, read-out: EC50 hCB1
[6] = agonist, GTPγ[35S] binding assay, read-out: EC50 hCB1a

T1 sequence (P34972 whole entry): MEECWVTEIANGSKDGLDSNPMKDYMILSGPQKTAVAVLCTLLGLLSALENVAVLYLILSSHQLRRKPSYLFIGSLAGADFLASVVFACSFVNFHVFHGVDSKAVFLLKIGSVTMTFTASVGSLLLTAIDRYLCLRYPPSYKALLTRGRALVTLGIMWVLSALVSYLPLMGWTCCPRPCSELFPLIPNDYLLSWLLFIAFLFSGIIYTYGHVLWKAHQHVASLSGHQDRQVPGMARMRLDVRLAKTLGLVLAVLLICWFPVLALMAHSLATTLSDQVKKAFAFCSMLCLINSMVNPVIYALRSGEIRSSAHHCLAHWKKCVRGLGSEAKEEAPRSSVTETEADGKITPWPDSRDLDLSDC

SMILES | EC50 (hCB2) [nM] | EC50 (hCB1b [2]; [4]) [nM] | EC50 (hCB1; [5]) [nM] | EC50 (hCB1a; [6]) [nM] | further results
CCCCC/C=C\C/C=C\C/C=C\C/C=C\CCCC(=O)OC(CO)CO [2-arachodonylglycerol] | 1690 |  |  |  | 
CCCCCCC(C)(C)c1cc(O)c2c(c1)OC(C)(C)[C@@H]1CC=C(CO)C[C@@H]21 [Hu210] |  |  |  |  | EC50 (hCB1b [1]): 0.15 nM; EC50 (hCB1b [2]): 0.15 nM; EC50 (hCB1): 0.06 nM; EC50 [3]: 0.06 nM; EC50 (hCB1a): 0.2 nM
CCCC(C)(C)c1ccc2c(c1)OC(C)(C)[C@@H]1CC=C(C)C[C@@H]21 [JWH133] | 1.8 | > 1000 | > 1000 | > 1000 | 
CCCCC/C=C\C/C=C\C/C=C\C/C=C\CCCCOC(CO)CO [Noladin Ether] | > 1000 |  |  |  | EC50 (hCB1b [2]; read-out: EC50 hCB1b): > 1000 nM; EC50 (hCB1; read-out: EC50 hCB1): 5.1 nM; EC50 (hCB1a; read-out: EC50 hCB1a): > 1000 nM
CCCCCCCCCCCCCCCC(=O)NCCO [Palmitoylethanolamine] | 349 | > 1000 | > 1000 | > 1000 | 
CCCCC/C=C\C/C=C\C/C=C\C/C=C\CCCC(=O)OCCN [Virodhamine] | 1310 | > 1000 | 934 | > 1000 | 
